# Source: PMC9950431, “A bivalent remipede toxin promotes calcium release via ryanodine receptor activation” (Nature Communications, 2023)
# “Also recorded” adds a separate entry of the source.
# What was measured:
# [1] = biological target: T1, RyR1 (Oryctolagus cuniculus, UniProt P11716); test: Washout (reversibility/avidity) single channel experiments, RyR1; assay type: biochemical, New Zealand white rabbit (skeletal SR)
# T1 construct: skeletal SR vesicles were isolated from the back and leg muscles of mature female New Zealand white rabbits; from tissue; host or cells: rabbit back and leg skeletal muscle, sarcoplasmic reticulum vesicles
# Description: Cardiac SR was prepared from mature female crossbred sheep hearts, and skeletal SR vesicles were isolated from the back and leg muscles of mature female New Zealand white rabbits[29],[54] with approval from the ANU Animal Experiment Ethics Committee Protocol Number A2015/35. […] Solutions for vesicle incorporation contained (mM): cis 230 caesium methanesulfonate (CsMS); 20 CsCl; 1 CaCl2 and 10 […] (TES) pH 7.4 and trans 30 CsMS; 20 CsCl; 1 CaCl2 10 TES; pH 7.4. SR vesicles routinely incorporated with the cytoplasmic surface of the SR and RyR facing the cis chamber. Following incorporation, 200 mM CsMS was added to the trans solution and the cis solution exchanged with recording solution containing (mM): 230 CsMS; 20 CsCl; 0.001 CaCl2;10 TES and pH 7.4, with [Ca^2+] set by a [BAPTA] determined using a Ca^2+ electrode. […] Electrophysiology experiments were analysed using Channel 2 (P.W. Gage, M. Smith, Australian National University) and Channel 3 (N.W. Laver, University of Newcastle, Australia) software, available from the authors upon request. […] Following most incorporation events, a single channel only was active in the bilayer and channel open probability (Po), mean open time (To), mean closed time (Tc) and open event frequency (Fo) were measured. […] In all experiments control channel activity was recorded for 3 to 5 min before exposure to the test compound. […]
# [2] = system: α3β2/α3β4 nAChR (α3-containing nAChR); test: FLIPR Ca2+ assay, inhibition of endogenous α3-containing nAChR; assay type: cell-based, human; details: for Ca2+ response relative to control response: 3 µM Xt3a pre-treatment, nicotine 30 μM, over 300 s
# Description: (§1) SH-SY5Y human neuroblastoma cells (European Collection of Authenticated Cell Culture, Sigma Aldrich, 94030304-1VL) were cultured in RPMI media (ThermoFisher Scientific, Scoresby, Australia) supplemented with 15% foetal bovine serum and L-glutamine (1 mM) and passaged at approximately 80% confluency with TrypLE Express (Thermo Fisher, Australia). For fluorescence imaging, cells were plated on CellBIND (Corning) 384-well black-walled imaging plates at a density of 20,000–30,000 cells/well in complete media and cultured for 48 h at 37 °C/5% CO2.
# (§2) Briefly, SH-SY5Y cells were loaded with Calcium 4 no-wash dye (Molecular Devices) diluted in physiological salt solution (composition in mM: NaCl 140, D-glucose 11.5, KCl 5.9, MgCl2 1.4, NaH2PO4 1.2, NaHCO3 5, CaCl2 1.8, HEPES 10) for 30 min at 37 °C. A two-addition FLIPR^Tetra (Molecular Devices) protocol using the following settings was used to measure fluorescence responses: excitation 470–495 nm; emission 515–575 nm; excitation intensity 80%; excitation duration 0.8 s; gain 140; read interval 1/s; read number 300/addition. Responses mediated via endogenously expressed ion channels were elicited by addition of: choline (30 μM)/PNU-120596 (10 μM) for α7 nAChR-mediated responses; nicotine (30 μM) for α3β2/α3β4 nAChR-mediated responses; KCl (90 mM)/CaCl2 (5 mM) for CaV1.3-mediated responses; KCl (90 mM)/CaCl2 (5 mM) + nifedipine (10 μM) for CaV2.2-mediated responses; vertridine (70 μM) for NaV1.2-mediated responses; and veratridine (4 μM)/OD1 (300 nM) for NaV1.7-mediated responses. Raw fluorescence readings were converted to response over baseline using the analysis tool Screenworks 3.1.1.4 (Molecular Devices) and were expressed relative to the maximum increase in fluorescence of control responses and plotted using GraphPad Prism 9.3.1.
# (§3) In the cell-based FLIPR assays statistical analysis was performed using GraphPad Prism 9.3.1. Statistical significance was defined as p < 0.05, and determined by one-sample t-test assessing difference to the control value of 100%. In α7 nAChR, α3-containing nAChR, CaV1.3, CaV2.2, NaV1.2 and NaV1.7 channels (Supplementary Fig. 5B), with distribution (t) and degrees of freedom (df) being: t = 0.9683, df = 2 (α7); t = 1.338, df = 2 (α3); t = 1.775, df = 2 (NaV1.2); t = 1.478
# [3] = system: NaV1.2; test: FLIPR Ca2+ assay, inhibition of endogenous NaV1.2; assay type: cell-based, human; details: for Ca2+ response relative to control response: 3 µM Xt3a pre-treatment, veratridine 70 μM, over 300 s
# Description: as §1, §2, §3
# T1 sequence (P11716 whole entry): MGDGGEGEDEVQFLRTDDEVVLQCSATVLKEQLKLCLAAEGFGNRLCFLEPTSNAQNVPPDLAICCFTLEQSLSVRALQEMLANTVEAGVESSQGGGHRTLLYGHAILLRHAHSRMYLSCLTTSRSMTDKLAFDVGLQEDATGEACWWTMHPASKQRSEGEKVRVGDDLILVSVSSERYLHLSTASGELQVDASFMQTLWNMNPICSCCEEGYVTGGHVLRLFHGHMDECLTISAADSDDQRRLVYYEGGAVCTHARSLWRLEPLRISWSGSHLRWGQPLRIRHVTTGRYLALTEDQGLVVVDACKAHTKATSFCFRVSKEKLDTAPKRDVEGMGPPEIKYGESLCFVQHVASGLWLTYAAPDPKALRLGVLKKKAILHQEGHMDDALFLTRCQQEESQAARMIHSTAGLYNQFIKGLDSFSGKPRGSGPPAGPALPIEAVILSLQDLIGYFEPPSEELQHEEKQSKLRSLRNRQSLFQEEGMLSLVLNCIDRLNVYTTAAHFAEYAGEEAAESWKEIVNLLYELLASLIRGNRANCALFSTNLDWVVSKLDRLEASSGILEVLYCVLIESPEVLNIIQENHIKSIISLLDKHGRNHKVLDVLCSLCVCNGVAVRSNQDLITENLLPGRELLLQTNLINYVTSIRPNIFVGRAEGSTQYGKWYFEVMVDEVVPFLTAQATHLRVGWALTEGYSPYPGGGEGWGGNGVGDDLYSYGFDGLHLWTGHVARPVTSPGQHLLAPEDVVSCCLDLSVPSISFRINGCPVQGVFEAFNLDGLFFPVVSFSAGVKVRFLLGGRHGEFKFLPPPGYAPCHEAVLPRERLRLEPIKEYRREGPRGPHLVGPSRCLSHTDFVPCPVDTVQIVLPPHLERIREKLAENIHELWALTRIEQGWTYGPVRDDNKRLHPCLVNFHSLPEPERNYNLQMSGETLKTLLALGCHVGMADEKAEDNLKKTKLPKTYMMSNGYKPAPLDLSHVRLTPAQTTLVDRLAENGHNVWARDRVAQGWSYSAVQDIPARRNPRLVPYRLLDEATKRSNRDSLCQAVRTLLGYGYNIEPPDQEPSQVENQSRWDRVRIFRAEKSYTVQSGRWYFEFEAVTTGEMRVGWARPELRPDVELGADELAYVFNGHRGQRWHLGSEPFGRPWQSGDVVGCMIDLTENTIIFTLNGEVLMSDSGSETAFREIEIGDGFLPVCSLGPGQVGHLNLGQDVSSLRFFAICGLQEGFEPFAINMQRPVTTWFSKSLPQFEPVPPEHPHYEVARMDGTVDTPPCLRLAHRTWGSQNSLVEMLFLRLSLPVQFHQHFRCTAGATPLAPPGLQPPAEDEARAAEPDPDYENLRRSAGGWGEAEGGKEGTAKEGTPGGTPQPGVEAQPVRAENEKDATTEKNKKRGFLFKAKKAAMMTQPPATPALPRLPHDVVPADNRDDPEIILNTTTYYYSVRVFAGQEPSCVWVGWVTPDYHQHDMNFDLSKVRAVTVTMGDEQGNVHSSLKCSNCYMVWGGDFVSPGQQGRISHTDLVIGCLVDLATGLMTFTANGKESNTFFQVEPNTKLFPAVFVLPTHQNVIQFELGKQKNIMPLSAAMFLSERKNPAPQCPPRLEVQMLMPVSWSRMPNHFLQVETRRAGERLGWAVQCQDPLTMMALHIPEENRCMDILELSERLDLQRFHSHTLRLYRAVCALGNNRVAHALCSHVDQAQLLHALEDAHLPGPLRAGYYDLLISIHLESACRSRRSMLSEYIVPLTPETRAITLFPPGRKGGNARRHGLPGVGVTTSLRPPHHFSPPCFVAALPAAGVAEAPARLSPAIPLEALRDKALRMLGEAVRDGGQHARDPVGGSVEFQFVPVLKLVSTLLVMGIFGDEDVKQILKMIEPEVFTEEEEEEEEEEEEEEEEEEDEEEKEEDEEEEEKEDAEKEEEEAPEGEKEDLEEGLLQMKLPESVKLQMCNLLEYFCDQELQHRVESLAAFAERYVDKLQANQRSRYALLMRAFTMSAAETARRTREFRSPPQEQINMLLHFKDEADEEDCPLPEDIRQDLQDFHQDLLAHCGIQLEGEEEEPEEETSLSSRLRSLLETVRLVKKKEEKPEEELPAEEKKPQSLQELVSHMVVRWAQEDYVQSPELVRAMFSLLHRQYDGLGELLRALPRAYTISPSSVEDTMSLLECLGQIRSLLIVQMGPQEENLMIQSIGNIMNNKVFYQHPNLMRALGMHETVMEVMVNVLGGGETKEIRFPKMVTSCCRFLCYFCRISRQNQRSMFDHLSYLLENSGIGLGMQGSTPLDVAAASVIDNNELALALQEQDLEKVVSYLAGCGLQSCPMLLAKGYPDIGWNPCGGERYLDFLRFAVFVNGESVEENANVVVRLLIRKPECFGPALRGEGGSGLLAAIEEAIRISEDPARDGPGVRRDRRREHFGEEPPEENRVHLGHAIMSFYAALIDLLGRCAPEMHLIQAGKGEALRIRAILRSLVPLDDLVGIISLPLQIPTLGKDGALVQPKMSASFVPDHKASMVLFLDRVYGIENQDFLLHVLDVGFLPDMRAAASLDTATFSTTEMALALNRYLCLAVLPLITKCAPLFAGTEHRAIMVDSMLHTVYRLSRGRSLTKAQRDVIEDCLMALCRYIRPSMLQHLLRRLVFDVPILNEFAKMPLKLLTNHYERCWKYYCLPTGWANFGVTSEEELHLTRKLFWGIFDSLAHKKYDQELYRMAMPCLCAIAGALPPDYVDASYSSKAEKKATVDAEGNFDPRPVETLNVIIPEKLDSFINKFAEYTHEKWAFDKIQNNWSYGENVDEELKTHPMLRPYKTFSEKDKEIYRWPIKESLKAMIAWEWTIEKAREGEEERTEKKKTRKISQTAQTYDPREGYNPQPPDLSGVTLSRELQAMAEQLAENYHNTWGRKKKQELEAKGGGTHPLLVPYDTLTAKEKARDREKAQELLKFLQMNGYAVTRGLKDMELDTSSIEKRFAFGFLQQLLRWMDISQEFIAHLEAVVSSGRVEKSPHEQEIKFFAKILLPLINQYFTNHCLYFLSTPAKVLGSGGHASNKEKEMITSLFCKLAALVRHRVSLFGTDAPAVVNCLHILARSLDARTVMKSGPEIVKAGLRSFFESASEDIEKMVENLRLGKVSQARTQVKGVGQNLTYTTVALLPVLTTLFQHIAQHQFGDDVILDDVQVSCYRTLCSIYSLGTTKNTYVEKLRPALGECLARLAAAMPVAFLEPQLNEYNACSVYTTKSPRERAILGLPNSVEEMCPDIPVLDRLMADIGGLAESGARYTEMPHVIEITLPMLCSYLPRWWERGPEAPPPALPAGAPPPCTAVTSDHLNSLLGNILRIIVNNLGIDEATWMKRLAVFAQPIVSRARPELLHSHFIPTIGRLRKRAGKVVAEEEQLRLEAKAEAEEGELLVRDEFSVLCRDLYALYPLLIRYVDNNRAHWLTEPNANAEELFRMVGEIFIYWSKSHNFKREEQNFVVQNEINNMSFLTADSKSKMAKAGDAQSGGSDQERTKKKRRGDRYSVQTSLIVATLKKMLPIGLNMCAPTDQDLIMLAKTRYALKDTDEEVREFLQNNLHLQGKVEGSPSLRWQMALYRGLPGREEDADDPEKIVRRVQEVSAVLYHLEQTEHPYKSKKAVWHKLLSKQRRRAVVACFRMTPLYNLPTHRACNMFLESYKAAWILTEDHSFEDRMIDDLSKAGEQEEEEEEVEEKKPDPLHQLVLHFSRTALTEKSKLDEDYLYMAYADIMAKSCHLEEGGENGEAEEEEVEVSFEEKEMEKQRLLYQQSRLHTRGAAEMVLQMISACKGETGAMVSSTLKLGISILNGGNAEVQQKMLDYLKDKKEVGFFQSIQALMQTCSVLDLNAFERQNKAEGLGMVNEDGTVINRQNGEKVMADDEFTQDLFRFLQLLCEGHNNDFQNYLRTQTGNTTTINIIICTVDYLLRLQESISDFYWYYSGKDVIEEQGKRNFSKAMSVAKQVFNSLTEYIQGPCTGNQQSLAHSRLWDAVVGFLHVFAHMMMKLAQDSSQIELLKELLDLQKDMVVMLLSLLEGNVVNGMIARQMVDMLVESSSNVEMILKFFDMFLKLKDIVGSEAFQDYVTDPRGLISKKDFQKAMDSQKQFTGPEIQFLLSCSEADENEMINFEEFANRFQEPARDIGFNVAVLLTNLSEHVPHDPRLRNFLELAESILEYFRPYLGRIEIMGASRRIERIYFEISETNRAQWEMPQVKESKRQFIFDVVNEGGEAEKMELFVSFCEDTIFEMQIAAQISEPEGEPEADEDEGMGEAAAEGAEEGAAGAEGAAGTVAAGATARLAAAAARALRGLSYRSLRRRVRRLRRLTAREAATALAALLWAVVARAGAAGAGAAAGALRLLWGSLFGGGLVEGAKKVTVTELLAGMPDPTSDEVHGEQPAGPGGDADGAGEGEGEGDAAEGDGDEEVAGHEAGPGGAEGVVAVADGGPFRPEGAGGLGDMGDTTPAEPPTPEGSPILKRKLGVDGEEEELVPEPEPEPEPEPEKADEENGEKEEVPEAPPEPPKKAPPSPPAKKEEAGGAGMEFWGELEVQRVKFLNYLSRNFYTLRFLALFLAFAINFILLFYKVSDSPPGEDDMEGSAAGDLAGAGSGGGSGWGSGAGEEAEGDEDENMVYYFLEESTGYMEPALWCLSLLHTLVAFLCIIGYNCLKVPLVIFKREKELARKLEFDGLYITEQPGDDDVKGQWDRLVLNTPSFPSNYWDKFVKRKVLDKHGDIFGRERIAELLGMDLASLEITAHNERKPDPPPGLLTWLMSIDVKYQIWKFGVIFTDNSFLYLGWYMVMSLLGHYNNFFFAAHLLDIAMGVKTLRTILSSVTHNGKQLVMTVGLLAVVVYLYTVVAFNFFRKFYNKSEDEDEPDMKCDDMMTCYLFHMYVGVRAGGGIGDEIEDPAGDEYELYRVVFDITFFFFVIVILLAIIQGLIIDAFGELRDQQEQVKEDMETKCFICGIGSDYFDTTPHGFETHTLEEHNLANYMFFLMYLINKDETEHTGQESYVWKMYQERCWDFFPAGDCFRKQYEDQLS
substance,measurement,setting,value
φ-Xibalbin3-Xt3a,reversibility on washout,"[1]; 100 pM, 10 nM and 1 μM, early (2 to 3 min) and late (15 to 23 min) after washout",no significant washout of Xt3a effect was observed; also recorded: persistent activity after washout in our single-channel recordings for as long as the bilayers lasted
same,sub-state activity during washout,[1]; maintained for as long as the bilayer lasted,sub-state activity increased during the washout period
same,Ca2+ response relative to control response,[2]; replicate 1,102.763%
same,Ca2+ response relative to control response,[2]; replicate 2,100.13%
same,Ca2+ response relative to control response,[2]; replicate 3,100.441%
same,inhibition of Ca2+ responses,[2]; Xt3a 3 µM,did not inhibit Ca^2+ responses
same,Ca2+ response relative to control response,[3]; replicate 1,91.9349%
same,Ca2+ response relative to control response,[3]; replicate 2,100.571%
same,Ca2+ response relative to control response,[3]; replicate 3,88.9832%
same,inhibition of Ca2+ responses,[3]; Xt3a 3 µM,did not inhibit Ca^2+ responses
